A word on the CC50: it is the concentration giving 50% cytotoxicity. High values mean lower toxicity to the cells, low ones greater toxicity to the cells.

For data set [1], the system named is HBV. Kind of data set: Determination of HBV DNA from the supernatants of HepAD38 cells (anti-HBV activity). It is filed as cell-based, hepatitis B virus. As to conditions: Hepatitis B virus, HePAD38, 144 h, HBV DNA in HepAD38 supernatant, day 6, qPCR; read-out: Cell Activity. The procedure: The anti-HBV activity was analysed in the stable transfected cell line HepAD38, which has been described to secrete high levels of HBV virion particles (Ladner et al., 1997). In brief, HepAD38 cells were cultured at 37° C. at 5% CO2 and 95% humidity in 200 μl maintenance medium, which was Dulbecco's modified Eagle's medium/Nutrient Mixture F-12 (Gibco, Karlsruhe), 10% fetal bovine serum (PAN Biotech Aidenbach) supplemented with 50 μg/ml penicillin/streptomycin (Gibco, Karlsruhe), 2 mM L-glutamine (PAN Biotech, Aidenbach), 400 μg/ml G418 (AppliChem, Darmstadt) and 0.3 μg/ml tetracycline. Cells were subcultured once a week in a 1:5 ratio, but were usually not passaged more than ten times. For the assay 60,000 cells were seeded in maintenance medium without any tetracycline into each well of a 96-well plate and treated with serial half-log dilutions of test compound. To minimize edge effects the outer 36 wells of the plate were not used but were filled with assay medium. On each assay plate six wells for the virus control (untreated HepAD38 cells) and six wells for the cell control (HepAD38 cells treated with 0.3 μg/ml tetracycline) were allocated, respectively. In addition, one plate set with reference inhibitors like BAY 41-4109, entecavir, and lamivudine instead of screening compounds were prepared in each experiment. In general, experiments were performed thrice in triplicates. At day 6 HBV DNA from 100 μl filtrated cell culture supernatant (AcroPrep Advance 96 Filter Plate, […] Supor membran, PALL GmbH, Dreieich) was automatically purified on the MagNa Pure LC instrument using the MagNA Pure 96 DNA and Viral NA Small Volume Kit (Roche Diagnostics, Mannheim) according to the instructions of the manufacturer. EC50 values were calculated from relative copy numbers of HBV DNA In brief, 5 μl of the 100 μl eluate containing HBV DNA were subjected to PCR LC480 Probes Master Kit (Roche) together with 1 μM antisense primer […], 0.5 μM sense primer […], 0.3 μM hybprobes […]-FL and LC640-[…]-PH (TIBMolBiol, Berlin) to a final volume of 12.5 μl. The PCR was performed on the Light Cycler 480 real time system (Roche Diagnostics, Mannheim) using the following protocol: Pre-incubation for 1 min at 95° C., amplification: 40 cycles×(10 sec at 95° C., 50 sec at 60° C., 1 sec at 70° C.), cooling for 10 sec at 40° C. Viral load was quantitated against known standards using HBV plasmid DNA of pCH-9/3091 (Nassal et al., 1990, Cell 63: 1357-1363) and the LightCycler 480 SW 1.5 software (Roche Diagnostics, Mannheim) and ECso values were calculated using non-linear regression with GraphPad Prism 6 (GraphPad Software Inc., La Jolla, USA).
In general terms: In qPCR the cycle at which signal appears reflects the starting amount.

A short description of data set [2]: Cell viability assay (AlamarBlue). As to conditions: human, HepAD38 cells. A general note: Alamar Blue is a resazurin reagent that responds to reducing activity.
Experimental: Using the AlamarBlue viability assay cytotoxicity was evaluated in HepAD38 cells in the presence of 0.3 μg/ml tetracycline, which blocks the expression of the HBV genome. Assay condition and plate layout were in analogy to the anti-HBV assay, however other controls were used. On each assay plate six wells containing untreated HepAD38 cells were used as the 100% viability control, and six wells filled with assay medium only were used as 0% viability control. In addition, a geometric concentration series of cycloheximide starting at 60 μM final assay concentration was used as positive control in each experiment. After six days incubation period Alamar Blue Presto cell viability reagent (ThermoFisher, Dreieich) was added in 1/11 dilution to each well of the assay plate. After an incubation for 30 to 45 min at 37° C. the fluorescence signal, which is proportional to the number of living cells, was read using a Tecan Spectrafluor Plus plate reader with an excitation filter 550 nm and emission filter 595 nm, respectively. Data were normalized into percentages of the untreated control (100% viability) and assay medium (0% viability) before CC50 values were calculated using non-linear regression and the GraphPad Prism 6.0 (GraphPad Software, La Jolla, USA). Mean EC50 and CC50 values were used to calculate the selectivity index (SI=CC50/EC50) for each test compound.
Data set [3] addresses HBV core protein (C-terminal truncated core protein containing 149 amino acids of the N-terminal assembly domain) (UniProt P03146). Nature of the data set: Biochemical capsid assembly assay (fluorescence quenching). Details: rows headed: Assembly Activity; other: BODIPY-FL labelled core protein, assembly started with NaCl, read after 6 min. As to conditions: read-out: Assembly Activity; BODIPY-FL labelled core protein, assembly started with NaCl, read after 6 min. The procedure: The screening for assembly effector activity was done based on a fluorescence quenching assay published by Zotnick et al. (2007). The C-terminal truncated core protein containing 149 amino acids of the N-terminal assembly domain fused to a unique cysteine residue at position 150 and was expressed in E. coli using the pET expression system (Merck Chemicals, Darmstadt). Purification of core dimer protein was performed using a sequence of size exclusion chromatography steps. In brief, the cell pellet from 1 L BL21 (DE3) Rosetta2 culture expressing the coding sequence of core protein cloned NdeI/XhoI into expression plasmid pET21b was treated for 1 h on ice with a native lysis buffer (Qproteome Bacterial Protein Prep Kit; Qiagen, Hilden). After a centrifugation step the supernatant was precipitated during 2 h stirring on ice with 0.23 g/ml of solid ammonium sulfate. Following further centrifugation the resulting pellet was resolved in buffer A (100 mM Tris, pH 7.5; 100 mM NaCl; 2 mM DTT) and was subsequently loaded onto a buffer A equilibrated CaptoCore 700 column (GE HealthCare, Frankfurt). The column flow through containing the assembled HBV capsid was dialyzed against buffer N (50 mM NaHCO3 pH 9.6; 5 mM DTT) before urea was added to a final concentration of 3M to dissociate the capsid into core dimers for 1.5 h on ice. The protein solution was then loaded onto a IL Sephacryl S300 column. After elution with buffer N core dimer containing fractions were identified by SDS-PAGE and subsequently pooled and dialyzed against 50 mM HEPES pH 7.5; 5 mM DTT. To improve the assembly capacity of the purified core dimers a second round of assembly and disassembly starting with the addition of 5 M NaCl and including the size exclusion chromatography steps described above was performed. From the last chromatography step core dimer containing fractions were pooled and stored in aliquots at concentrations between 1.5 to 2.0 mg/ml at −80° C.
Immediately before labelling the core protein was reduced by adding freshly prepared DTT in a final concentration of 20 mM. After 40 min incubation on ice storage buffer and DTT was removed using a Sephadex G-25 column (GE HealthCare, Frankfurt) and 50 mM HEPES, pH 7.5. For labelling 1.6 mg/ml core protein was incubated at 4° C. and darkness overnight with BODIPY-FL maleimide (Invitrogen, Karlsruhe) in a final concentration of 1 mM. After labelling the free dye was removed by an additional desalting step using a Sephadex G-25 column. Labelled core dimers were stored in aliquots at 4° C. In the dimeric state the fluorescence signal of the labelled core protein is high and is quenched during the assembly of the core dimers to high molecular capsid structures. The screening assay was performed in black 384 well microtiter plates in a total assay volume of 10 μl using 50 mM HEPES pH 7.5 and 1.0 to 2.0 μM labelled core protein. Each screening compound was added in 8 different concentrations using a 0.5 log-unit serial dilution starting at a final concentration of 100 μM, 31.6 μM or 10 μM, In any case the DMSO concentration over the entire microtiter plate was 0.5%. The assembly reaction was started by the injection of NaCl to a final concentration of […] which induces the assembly process to approximately 25% of the maximal quenched signal. 6 min after starting the reaction the fluorescence signal was measured using a Clariostar plate reader (BMG Labtech, Ortenberg) with an excitation of 477 nm and an emission of 525 nm. As 100% and 0% assembly control HEPES buffer containing 2.5 M and 0 M NaCl was used. Experiments were performed thrice in triplicates. EC50 values were calculated by non-linear regression analysis using the Graph Pad Prism 6 software (GraphPad Software, La Jolla, USA).

HBV core protein (C-terminal truncated core protein containing 149 amino acids of the N-terminal assembly domain), sequence (P03146 whole entry, the tested form may be a part): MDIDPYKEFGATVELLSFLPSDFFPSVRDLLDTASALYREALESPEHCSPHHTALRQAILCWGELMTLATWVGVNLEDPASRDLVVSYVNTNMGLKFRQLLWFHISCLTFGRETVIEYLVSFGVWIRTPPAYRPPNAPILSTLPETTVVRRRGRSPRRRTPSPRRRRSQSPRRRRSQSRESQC

With `CN(C(=O)c1cnn2c1CN(C(=O)c1cc3cc(F)c(Cl)cc3[nH]1)CC2)C1(COC(F)F)CC1` [Example 23, 5-(6-chloro-5-fluoro-1H-indole-2-carbonyl)-N-{1-[(difluoromethoxy)methyl]cyclopropyl}-N-methyl-4H,5H,6H,7H-pyrazolo[1,5-a]pyrazine-3-carboxamide], in data set [1], the EC50 is under 1 µM. Besides, the CC50 at 6 days in data set [2] is over 10 µM. For the same molecule, the IC50 in data set [3] is under 5 µM.
For the molecule `CN(C(=O)c1cnn2c1CN(C(=O)c1cc3c(F)ccc(F)c3[nH]1)CC2)C1(COC(F)F)CC1` [Example 24, 5-(4,7-difluoro-1H-indole-2-carbonyl)-N-{1-[(difluoromethoxy)methyl]cyclopropyl}-N-methyl-4H,5H,6H,7H-pyrazolo[1,5-a]pyrazine-3-carboxamide], in data set [1], the EC50 is under 1 µM. In data set [2], this molecule yielded a CC50 at 6 days of over 10 µM. Moreover, in data set [3], the IC50 was under 5 µM.
In the same order, the values of `CN(C(=O)c1cnn2c1CN(C(=O)c1cc3c(Cl)cc(F)cc3[nH]1)CC2)C1(COC(F)F)CC1` [Example 25, 5-(4-chloro-6-fluoro-1H-indole-2-carbonyl)-N-{1-[(difluoromethoxy)methyl]cyclopropyl}-N-methyl-4H,5H,6H,7H-pyrazolo[1,5-a]pyrazine-3-carboxamide] are under 1 µM, over 10 µM and under 5 µM.
In the same order, the values of `NS(=O)(=O)c1cnn2c1CN(C(=O)c1cc3ccccc3[nH]1)CC2` [Example 26, 5-(1H-indole-2-carbonyl)-4H,5H,6H,7H-pyrazolo[1,5-a]pyrazine-3-sulfonamide] are under 1 µM, over 10 µM and under 5 µM.
Regarding `O=C(c1cc2ccccc2[nH]1)N1CCn2ncc(S(=O)(=O)NCC3(O)CCC3)c2C1` [Example 27, N-[(1-hydroxycyclobutyl)methyl]-5-(1H-indole-2-carbonyl)-4H,5H,6H,7H-pyrazolo[1,5-a]pyrazine-3-sulfonamide], in data set [1], the EC50 is 1 to 10 µM. The molecule also displayed a half-maximal cytotoxic concentration (CC50) at 6 days in data set [2] of over 10 µM. Further, in data set [3], the IC50 is 5 to 10 µM.
Turning to `CC(NS(=O)(=O)c1cnn2c1CN(C(=O)c1cc3ccccc3[nH]1)CC2)C(F)(F)F` (stereo not drawn) [Example 28, 5-(1H-indole-2-carbonyl)-N-(1,1,1-trifluoropropan-2-yl)-4H,5H,6H,7H-pyrazolo[1,5-a]pyrazine-3-sulfonamide], the EC50 in data set [1] is 1 to 10 µM. In data set [2], this molecule came in with a CC50 at 6 days of over 10 µM. For the same molecule, the IC50 in data set [3] is under 5 µM.
As for `O=C(c1cc2ccccc2[nH]1)N1CCn2ncc(S(=O)(=O)NCCO)c2C1` [Example 29, N-(2-hydroxyethyl)-5-(1H-indole-2-carbonyl)-4H,5H,6H,7H-pyrazolo[1,5-a]pyrazine-3-sulfonamide], the EC50 in data set [1] is under 1 µM. This molecule also yielded a CC50 at 6 days in data set [2] of over 10 µM. Moreover, the IC50 in data set [3] was under 5 µM.
In the same order, the values of `O=C(c1cc2ccccc2[nH]1)N1CCn2ncc(S(=O)(=O)NC3CCOC3)c2C1` (stereo not drawn) [Example 30, 5-(1H-indole-2-carbonyl)-N-(oxolan-3-yl)-4H,5H,6H,7H-pyrazolo[1,5-a]pyrazine-3-sulfonamide] are under 1 µM, over 10 µM and under 5 µM.
In the same order, the values of `CN(CCO)S(=O)(=O)c1cnn2c1CN(C(=O)c1cc3ccccc3[nH]1)CC2` [Example 31, N-(2-hydroxyethyl)-5-(1H-indole-2-carbonyl)-N-methyl-4H,5H,6H,7H-pyrazolo[1,5-a]pyrazine-3-sulfonamide] are under 1 µM, over 10 µM and under 5 µM.
In the same order, the values of `COCC1(N(C)S(=O)(=O)c2cnn3c2CN(C(=O)c2cc4ccccc4[nH]2)CC3)CC1` [Example 32, 5-(1H-indole-2-carbonyl)-N-[1-(methoxymethyl)cyclopropyl]-N-methyl-4H,5H,6H,7H-pyrazolo[1,5-a]pyrazine-3-sulfonamide] are under 1 µM, over 10 µM and under 5 µM.
As to `O=C(c1cc2ccccc2[nH]1)N1CCn2ncc(S(=O)(=O)NCC3CCOC3)c2C1` (stereo not drawn) [Example 33, 5-(1H-indole-2-carbonyl)-N-[(oxolan-3-yl)methyl]-4H,5H,6H,7H-pyrazolo[1,5-a]pyrazine-3-sulfonamide], the EC50 in data set [1] is 1 to 10 µM. The molecule further yielded a CC50 at 6 days in data set [2] of over 10 µM. For the same molecule, the IC50 in data set [3] lay within 5 to 10 µM.
Regarding `O=C(c1cc2ccccc2[nH]1)N1CCn2ncc(S(=O)(=O)N3CCC(O)CC3)c2C1` [Example 35, 1-{[5-(1H-indole-2-carbonyl)-4H,5H,6H,7H-pyrazolo[1,5-a]pyrazin-3-yl]sulfonyl}piperidin-4-ol], in data set [1], the EC50 was under 1 µM. Further, the CC50 at 6 days in data set [2] is over 10 µM. Moreover, the IC50 in data set [3] was under 5 µM.
The matching figures for `CN1CCN(S(=O)(=O)c2cnn3c2CN(C(=O)c2cc4ccccc4[nH]2)CC3)CC1` [Example 36, 2-{3-[(4-methylpiperazin-1-yl)sulfonyl]-4H,5H,6H,7H-pyrazolo[1,5-a]pyrazine-5-carbonyl}-1H-indole]: under 1 µM, over 10 µM and 5 to 10 µM.
In the same order, the values of `CC(C)NS(=O)(=O)c1cnn2c1CN(C(=O)c1cc3ccccc3[nH]1)CC2` [Example 37, 5-(1H-indole-2-carbonyl)-N-(propan-2-yl)-4H,5H,6H,7H-pyrazolo[1,5-a]pyrazine-3-sulfonamide] are under 1 µM, over 10 µM and under 5 µM.

(Values after patent US20220363686A1 (AiCuris GmbH & Co. KG, priority 2018, published 2022).)
